Assay [1] deals with Dual specificity tyrosine-phosphorylation-regulated kinase 1A (Rattus norvegicus) (UniProt Q63470). The assay can be described thus: Inhibition of rat full length DYRK1a expressed in Escherichia coli cell assessed as substrate phosphorylation using fluorescence-labelled peptides as substrate at 0.2 uM after 90 mins by microfluidic peptide phosphorylation assay.
For assay [2] the target is unchanged. The assay can be described thus: Inhibition of rat full length DYRK1a expressed in Escherichia coli cell assessed as substrate phosphorylation using fluorescence-labelled peptides as substrate at 9 uM after 90 mins by microfluidic peptide phosphorylation assay.
In assay [3] the target is T1, Serine/threonine-protein kinase BRSK2 (Homo sapiens) (UniProt Q8IWQ3).
T1 sequence (whole entry): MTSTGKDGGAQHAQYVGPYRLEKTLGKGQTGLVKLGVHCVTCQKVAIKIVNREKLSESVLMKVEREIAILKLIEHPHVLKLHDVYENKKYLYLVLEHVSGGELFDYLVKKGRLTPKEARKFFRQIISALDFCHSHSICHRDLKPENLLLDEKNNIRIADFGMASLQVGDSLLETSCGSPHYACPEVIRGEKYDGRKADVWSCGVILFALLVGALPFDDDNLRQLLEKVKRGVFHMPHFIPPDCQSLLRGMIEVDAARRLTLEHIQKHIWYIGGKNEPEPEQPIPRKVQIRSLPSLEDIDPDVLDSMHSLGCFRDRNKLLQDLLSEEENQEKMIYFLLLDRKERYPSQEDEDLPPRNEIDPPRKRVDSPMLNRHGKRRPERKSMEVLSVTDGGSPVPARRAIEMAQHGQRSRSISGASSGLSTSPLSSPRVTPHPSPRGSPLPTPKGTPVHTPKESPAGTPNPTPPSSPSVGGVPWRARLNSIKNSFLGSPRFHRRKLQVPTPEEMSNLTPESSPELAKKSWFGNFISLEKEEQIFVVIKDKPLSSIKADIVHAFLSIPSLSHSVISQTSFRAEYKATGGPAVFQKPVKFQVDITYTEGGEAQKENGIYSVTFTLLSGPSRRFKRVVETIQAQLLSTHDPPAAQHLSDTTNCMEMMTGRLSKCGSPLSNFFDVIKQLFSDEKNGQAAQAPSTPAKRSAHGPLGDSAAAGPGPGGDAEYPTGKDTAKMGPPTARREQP
The experiment in a line: Inhibition of human truncated BRSK2 expressed in baculovirus assessed as substrate phosphorylation using fluorescence-labelled peptides as substrate at 8 uM after 90 mins by microfluidic peptide phosphorylation assay.

For assay [4], the target named is T2, Cytoplasmic tyrosine-protein kinase BMX (Homo sapiens) (UniProt P51813).
T2 sequence (whole entry): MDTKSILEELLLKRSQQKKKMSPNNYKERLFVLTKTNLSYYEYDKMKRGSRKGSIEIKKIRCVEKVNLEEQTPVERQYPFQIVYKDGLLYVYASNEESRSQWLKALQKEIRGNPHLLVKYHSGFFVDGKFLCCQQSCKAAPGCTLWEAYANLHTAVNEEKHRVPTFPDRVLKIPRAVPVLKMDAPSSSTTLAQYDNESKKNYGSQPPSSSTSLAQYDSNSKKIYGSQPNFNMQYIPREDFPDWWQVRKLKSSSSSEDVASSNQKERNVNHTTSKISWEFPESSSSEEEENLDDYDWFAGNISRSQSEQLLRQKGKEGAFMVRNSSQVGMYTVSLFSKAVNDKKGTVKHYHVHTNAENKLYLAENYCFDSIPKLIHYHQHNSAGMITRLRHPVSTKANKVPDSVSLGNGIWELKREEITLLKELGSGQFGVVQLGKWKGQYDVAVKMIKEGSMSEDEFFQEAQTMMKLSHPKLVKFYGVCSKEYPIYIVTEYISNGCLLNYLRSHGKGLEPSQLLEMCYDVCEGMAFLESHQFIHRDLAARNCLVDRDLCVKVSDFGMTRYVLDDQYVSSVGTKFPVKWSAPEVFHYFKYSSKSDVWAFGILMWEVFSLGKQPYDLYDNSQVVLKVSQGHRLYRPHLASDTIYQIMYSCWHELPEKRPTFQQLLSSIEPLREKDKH
The experiment in a line: Inhibition of human full length BMX expressed in baculovirus assessed as substrate phosphorylation using fluorescence-labelled peptides as substrate at 8 uM after 90 mins by microfluidic peptide phosphorylation assay.

In assay [5] the target is T3, Serine/threonine-protein kinase 3 (Homo sapiens) (UniProt Q13188).
T3 sequence (whole entry): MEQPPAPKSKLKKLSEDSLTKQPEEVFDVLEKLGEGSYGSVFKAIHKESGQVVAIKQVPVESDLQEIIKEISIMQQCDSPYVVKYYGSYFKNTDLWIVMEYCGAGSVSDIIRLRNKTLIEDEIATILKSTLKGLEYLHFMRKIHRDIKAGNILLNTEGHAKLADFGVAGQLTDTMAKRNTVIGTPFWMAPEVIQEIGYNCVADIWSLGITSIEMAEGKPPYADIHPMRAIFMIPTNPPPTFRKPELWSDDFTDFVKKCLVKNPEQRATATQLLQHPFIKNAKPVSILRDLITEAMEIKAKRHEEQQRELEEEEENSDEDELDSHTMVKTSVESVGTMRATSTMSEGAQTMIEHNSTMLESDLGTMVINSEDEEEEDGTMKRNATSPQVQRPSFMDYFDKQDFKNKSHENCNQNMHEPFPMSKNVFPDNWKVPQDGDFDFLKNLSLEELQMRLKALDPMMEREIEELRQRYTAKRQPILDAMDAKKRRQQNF
The assay can be described thus: Inhibition of human full length MST2 expressed in baculovirus assessed as substrate phosphorylation using fluorescence-labelled peptides as substrate at […] after 90 mins by microfluidic peptide phosphorylation assay.

Assay [6] deals with T4, Testis-specific serine/threonine-protein kinase 1 (Homo sapiens) (UniProt Q9BXA7).
T4 sequence (whole entry): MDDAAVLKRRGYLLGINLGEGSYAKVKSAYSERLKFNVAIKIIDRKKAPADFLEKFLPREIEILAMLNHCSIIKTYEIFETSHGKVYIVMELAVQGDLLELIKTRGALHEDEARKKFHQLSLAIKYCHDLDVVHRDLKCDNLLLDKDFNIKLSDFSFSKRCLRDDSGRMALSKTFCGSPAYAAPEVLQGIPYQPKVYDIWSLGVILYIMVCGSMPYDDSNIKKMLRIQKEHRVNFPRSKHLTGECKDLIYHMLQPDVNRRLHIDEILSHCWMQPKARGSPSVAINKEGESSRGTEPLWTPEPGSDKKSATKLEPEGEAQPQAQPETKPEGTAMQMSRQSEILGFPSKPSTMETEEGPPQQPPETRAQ
The assay can be described thus: Inhibition of human full length TSSK1 expressed in baculovirus assessed as substrate phosphorylation using fluorescence-labelled peptides as substrate at 420 uM after 90 mins by microfluidic peptide phosphorylation assay.

Assay [7] deals with Tyrosine-protein kinase Fer (Homo sapiens) (UniProt P16591). The experiment in a line: Inhibition of human FER catalytic domain expressed in baculovirus assessed as substrate phosphorylation using fluorescence-labelled peptides as substrate at 420 uM after 90 mins by microfluidic peptide phosphorylation assay.

This is an account of results in ChEMBL document CHEMBL3132769, “Fragment growing to retain or alter the selectivity of anchored kinase hinge-binding fragments” (Medchemcomm, 2014).

As a reminder, the inhibition is the share of the control response that was lost under treatment.

Chain of Tyrosine-protein kinase Fer (Homo sapiens) (P16591 whole entry, looked up, the tested form may be a part): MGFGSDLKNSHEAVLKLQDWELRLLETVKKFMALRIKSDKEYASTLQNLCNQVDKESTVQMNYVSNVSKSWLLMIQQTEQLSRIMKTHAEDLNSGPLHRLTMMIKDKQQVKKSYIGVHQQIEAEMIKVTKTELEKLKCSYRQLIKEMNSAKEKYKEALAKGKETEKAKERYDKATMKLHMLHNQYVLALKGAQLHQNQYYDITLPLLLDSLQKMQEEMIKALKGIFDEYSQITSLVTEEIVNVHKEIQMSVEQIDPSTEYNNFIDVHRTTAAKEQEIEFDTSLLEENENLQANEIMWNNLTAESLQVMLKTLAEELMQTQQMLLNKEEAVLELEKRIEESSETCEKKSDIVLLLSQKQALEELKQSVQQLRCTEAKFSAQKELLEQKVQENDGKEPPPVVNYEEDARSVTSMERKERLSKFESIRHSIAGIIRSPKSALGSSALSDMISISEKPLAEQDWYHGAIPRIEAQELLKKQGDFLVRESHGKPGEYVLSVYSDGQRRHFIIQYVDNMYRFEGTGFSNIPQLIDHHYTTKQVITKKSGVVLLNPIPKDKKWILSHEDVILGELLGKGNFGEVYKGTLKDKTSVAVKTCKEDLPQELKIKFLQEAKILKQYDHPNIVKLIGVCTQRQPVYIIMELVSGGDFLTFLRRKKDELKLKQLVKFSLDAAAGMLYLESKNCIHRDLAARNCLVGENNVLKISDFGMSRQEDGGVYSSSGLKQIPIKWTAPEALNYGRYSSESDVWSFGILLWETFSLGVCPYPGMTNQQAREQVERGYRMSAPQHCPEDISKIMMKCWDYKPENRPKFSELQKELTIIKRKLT

For the compound `Clc1ccc(C2(c3ccc(-c4ncnc5[nH]cnc45)cc3)CCNCC2)cc1`, the inhibition in assay [1] is 11%.
For `NCC1CN(c2ncnc3[nH]c4cnccc4c23)CCO1` (configuration not stated), the inhibition in assay [2] was 7.5%.
On to `NCC1CCN(c2ncnc3[nH]ccc23)CC1`, for which the inhibition is 56.5% in assay [3] and 42.5% in assay [4].
For `COC(=O)c1cnc(Nc2cnc(C#N)cn2)cc1NCC1CCNCC1`, the inhibition in assay [5] was 0.5%.
On to `c1nc(N2CCOCC2)c2nc[nH]c2n1`, for which the figures for the inhibition in assay [6] and in assay [7] were 71% and 70.5%, respectively.
